We go through four compounds from patent publication US4328334A, “11-Aza-10-deoxo-10-dihydroerythromycin A and derivatives thereof as well as a process for their preparation” (PLIVA Pharmaceutical and Chemical Works, priority 1979, dated 1982).

The subject of data set [1] is Staphylococcus epidermidis ATCC 12228. Description: in vitro minimum inhibitory concentration, Staphylococcus epidermidis ATCC 12228. The class given is cell-based. The conditions noted are these: ATCC12228; in vitro, Staphylococcus epidermidis ATCC 12228; read-out: minimum inhibitory concentrations (MIC).
Data set [2] has as its system Bacillus subtilis ATCC 6633. Description: in vitro minimum inhibitory concentration, Bacillus subtilis ATCC 6633. Format: cell-based. The conditions noted are these: ATCC6633; in vitro, Bacillus subtilis ATCC 6633; read-out: minimum inhibitory concentrations (MIC).
In data set [3] the test system is Bacillus cereus var. mycoides ATCC 11778. Nature of the data set: microbe, parasite or virus in culture. Format: cell-based. The conditions noted are these: ATCC11778, read-out: minimum inhibitory concentrations (MIC).
Data set [4] relates to Staphylococcus aureus ATCC 6538-P. Nature of the data set: in vitro minimum inhibitory concentration, Staphylococcus aureus ATCC 6538-P. The class given is cell-based. To be noted: ATCC6538; in vitro, Staphylococcus aureus ATCC 6538-P; read-out: minimum inhibitory concentrations (MIC).
For a further data set, the system named is Sarcina lutea ATCC 9341. Description: in vitro minimum inhibitory concentration, Sarcina lutea ATCC 9341. To be noted: Micrococcus luteus, ATCC9341, read-out: minimum inhibitory concentrations (MIC). The class given is cell-based.
For data set [5], the system named is Streptococcus faecalis ATCC 8043. Nature of the data set: in vitro minimum inhibitory concentration, Streptococcus faecalis ATCC 8043. To be noted: Enterococcus faecalis, ATCC8043; in vitro, Streptococcus faecalis ATCC 8043; read-out: minimum inhibitory concentrations (MIC). The class given is cell-based.
The test system of data set [6] is Micrococcus flavus ATCC 10240. Nature of the data set: in vitro minimum inhibitory concentration, Micrococcus flavus ATCC 10240. Format: cell-based. To be noted: ATCC10240; in vitro, Micrococcus flavus ATCC 10240; read-out: minimum inhibitory concentrations (MIC).
The nature of data set [7]: pKb in dimethyl formamide-water. Format: physicochemical. To be noted: dmf (66% v/v)-water; dimethyl formamide (66% v/v)-water.

In brackets after ≈: the same amount, converted by molar mass.

As for `CC[C@H]1OC(=O)[C@H](C)[C@@H](O[C@H]2C[C@@](C)(OC)[C@@H](OC(C)=O)[C@H](C)O2)[C@H](C)[C@@H](O[C@@H]2O[C@H](C)C[C@H](N(C)C)[C@H]2OC(C)=O)[C@](C)(O)C[C@@H](C)CN(C(C)=O)[C@H](C)[C@@H](O)[C@]1(C)O` [Compound III, 2',4"-N-triacetyl-11-aza-10-deoxo-10-dihydroerythromycin A], the MIC came to 200 µg/mL (≈ 232 µM) in data set [1]; 175 µg/mL (≈ 203 µM) in data set [2]; 200 µg/mL (≈ 232 µM) in data set [3]; 150 µg/mL (≈ 174 µM) in data set [4]; 10 µg/mL (≈ 11.6 µM) with Sarcina lutea ATCC 9341; 125 µg/mL (≈ 145 µM) in data set [5]. Besides, in data set [6], the MIC is 50 µg/mL (≈ 58.1 µM).

One may read the pKa as the negative logarithm of the acid dissociation constant. The compound `CCC(=O)N1C[C@H](C)C[C@@](C)(O)[C@H](O[C@@H]2O[C@H](C)C[C@H](N(C)C)[C@H]2O)[C@@H](C)[C@H](O[C@H]2C[C@@](C)(OC)[C@@H](O)[C@H](C)O2)[C@@H](C)C(=O)O[C@H](CC)[C@@](C)(O)[C@H](O)[C@H]1C` [Compound V, N-propionyl-11-aza-10-deoxo-10-dihydroerythroycin A] displayed a pKa in data set [7] of 8.6.

The compound `CC[C@H]1OC(=O)[C@H](C)[C@@H](O[C@H]2C[C@@](C)(OC)[C@@H](O)[C@H](C)O2)[C@H](C)[C@@H](O[C@@H]2O[C@H](C)C[C@H](N(C)C)[C@H]2OC(C)=O)[C@](C)(O)C[C@@H](C)CN(C(C)=O)[C@H](C)[C@@H](O)[C@]1(C)O` [Example 5, 2',N-diacetyl-11-aza-10-deoxo-10-dihydroerythromycin A] came in with a pKa in data set [7] of 6.7.

In data set [7], `CCC(=O)O[C@H]1[C@H](O[C@@H]2[C@@H](C)[C@H](O[C@H]3C[C@@](C)(OC)[C@@H](O)[C@H](C)O3)[C@@H](C)C(=O)O[C@H](CC)[C@@](C)(O)[C@H](O)[C@@H](C)N(C(=O)CC)C[C@H](C)C[C@@]2(C)O)O[C@H](C)C[C@@H]1N(C)C` [Example 6, 2',N-dipropionyl-11-aza-10-deoxo-10-dihydroerythromycin A] returned a pKa of 6.7.
